In publication PMC8448162, “Single- and Multiple-Ascending-Dose Study of the Safety, Tolerability, and Pharmacokinetics of the Polymyxin Derivative SPR206” (Antimicrobial Agents and Chemotherapy, 2021):
Positions of bridges follow the written chain, without caps; N, C: chain ends. Non-standard residues stand in square brackets, D forms with d. Residues, ends and D or L forms follow the SMILES beside them. *: point of attachment. X1 = NC[C@@H](CC(=O)*)c1cccc(Cl)c1; Dab = NCC[C@H](N)C(=O)O; Dap = NC[C@H](N)C(=O)O

How the values were obtained:
healthy subjects = experiment: Safety and tolerability (adverse events, laboratory tests, ECG), first-in-human SAD/MAD study, 1-h i.v. infusion; conditions: in vivo
[1] = assay type: in vitro ADME
Description: In the MAD phase, plasma samples for PK analysis were collected (i) on day 1—pre-dose and at 30, 60, 75, 90, 105, 120, and 150 min and at 3, 5, and 8 h following start of the first infusion; (ii) prior to the morning dose (within 10 min) on days 2, 3, 5, 7, 9, 11, and 13; and (iii) predose and 30, 75, 90, 105, 120, and 150 min and 3, 5, 8, and 12 h (day 14), 24, 36 (day 15), and 48 h (day 16) following start of the last infusion. Urine was collected for PK assessment on day 1 predose, over the intervals 0 to 4 h and 4 to 8 h after start of first infusion, and on days 14 and 15 over the intervals 0 to 4 h, 4 to 8 h, 8 to 12 h, and 12 to 24 h after start of day 14 infusion. Total 24-h urine for calculating CrCl was collected from the morning of day −1 to predose on day 1 and on days 15 and 16 over the interval from 24 to 48 h after the start of the day 14 infusion. Urine creatinine concentrations were measured using 24-h collections prior to the first dose on day 1 and over the 24 to 48 h following start of infusion of the last dose (day 14). Plasma and urine samples for SPR206 levels were analyzed using a validated liquid chromatography-tandem mass spectrometry (LC-MS/MS) method. The assay range for SPR206 was 50 to 5,000 ng/ml in plasma and 100 to 50,000 ng/ml in urine. […]

clinical = conditions: human, in vivo; for CL renal: CLR (renal clearance)
Description: Maximum plasma concentration (Cmax), area under the concentration-time curve from time zero to last measurable time point (AUC0–t), area under the concentration-time curve from time zero to infinity (AUC0–inf), area under the concentration-time curve from time zero to tau (AUC0–tau), time to maximum concentration (Tmax), terminal elimination rate constant (kel), terminal half-life (t1/2), terminal clearance (CL), and volume of distribution (Vz) were determined. In addition, area under the concentration-time curve from 0 to 24 h after the start of infusion (AUC0–24) was determined for the SAD phase, and area under the concentration-time curve from time zero to 8 h from start of infusion (AUC0–8) on day 1 and 0 to 48 h (AUC0–48) following the last dose on day 14 as well as predose trough concentrations were determined for the MAD phase. Urine parameters included cumulative amount of drug excreted in successive urine intervals (Ae), renal clearance (CLR), fraction of cumulative fraction of dose recovered in urine as unchanged drug (Fe), and percentage fraction of cumulative fraction of dose recovered in urine as unchanged drug (Fe%). PK parameters were determined by noncompartmental analysis using Phoenix WinNonlin 8.1.
For the SAD phase, blood samples were obtained predose and at 30, 60, 75, 90, 105, 120, and 150 min and at 3, 5, 8, 12, and 24 h following the start of infusion. Urine was collected for PK assessment predose and over the intervals of 0 to 4 h, 4 to 8 h, 8 to 12 h, and 12 to 24 h after the start of infusion.
In the MAD phase, plasma samples for PK analysis were collected (i) on day 1—pre-dose and at 30, 60, 75, 90, 105, 120, and 150 min and at 3, 5, and 8 h following start of the first infusion; (ii) prior to the morning dose (within 10 min) on days 2, 3, 5, 7, 9, 11, and 13; and (iii) predose and 30, 75, 90, 105, 120, and 150 min and 3, 5, 8, and 12 h (day 14), 24, 36 (day 15), and 48 h (day 16) following start of the last infusion. Urine was collected for PK assessment on day 1 predose, over the intervals 0 to 4 h and 4 to 8 h after start of first infusion, and on days 14 and 15 over the intervals 0 to 4 h, 4 to 8 h, 8 to 12 h, and 12 to 24 h after start of day 14 infusion. Total 24-h urine for calculating CrCl was collected from the morning of day −1 to predose on day 1 and on days 15 and 16 over the interval from 24 to 48 h after the start of the day 14 infusion. Urine creatinine concentrations were measured using 24-h collections prior to the first dose on day 1 and over the 24 to 48 h following start of infusion of the last dose (day 14). Plasma and urine samples for SPR206 levels were analyzed using a validated liquid chromatography-tandem mass spectrometry (LC-MS/MS) method. The assay range for SPR206 was 50 to 5,000 ng/ml in plasma and 100 to 50,000 ng/ml in urine. In plasma, assay precision was 1.3 to 7.7%, accuracy was 1.2 to 9.5%, stability was 194 h at 4°C, and reproducibility was 98.4%. In urine, assay precision was 1.7 to 7.5%, accuracy was −4.8 to 7.3%, stability was 147 h at 4°C, and reproducibility was 97.8%.

With `CC(C)C[C@@H]1NC(=O)[C@@H](Cc2ccccc2)NC(=O)[C@H](CCN)NC(=O)[C@@H](NC(=O)[C@H](CN)NC(=O)[C@@H](NC(=O)C[C@H](CN)c2cccc(Cl)c2)[C@@H](C)O)CCNC(=O)[C@H]([C@@H](C)O)NC(=O)[C@H](CCN)NC(=O)[C@H](CCN)NC1=O` [SPR206] (X1-T[Dap][Dab][Dab][dF]L[Dab][Dab]T; lactam 3-C (inferred)) the “subjects with oral hypoesthesia” value (healthy subjects) was 6 subjects, the “subjects with oral paresthesia” value (healthy subjects) was 5 subjects and the stability in urine [1] was 147 h. The stability in plasma ([1]; plasma) was 194 h, the CL renal (clinical; 10 mg) was 0.567 mL/min and the CL renal (clinical; 25 mg) was 4 mL/min. The CL renal (clinical; 50 mg) was 13.7 mL/min, the CL renal (clinical; 100 mg) was 25.8 mL/min and the “CLR (renal clearance)” value (clinical; 150 mg) was 1.55 ± 0.17 L/h. For the same molecule, the CL renal (clinical; 150 mg) was 35.5 mL/min, the CL renal (clinical; 200 mg) was 29.5 mL/min and the CL renal (clinical; 300 mg) was 35.5 mL/min. For the same molecule, the CL renal (clinical; 400 mg) was 32.8 mL/min, the “Fe (%)” value (clinical; iv, 25 mg) was 5.32 ± 4.38% and the “Fe (fraction of dose recovered in urine as unchanged drug)” value (clinical; iv, 25 mg) was 0.05 ± 0.04. The “Fe (fraction of dose recovered in urine as unchanged drug)” value (clinical; iv, 50 mg) was 0.18 ± 0.02, the “Fe (fraction of dose recovered in urine as unchanged drug)” value (clinical; iv, 100 mg) was 0.27 ± 0.05 and the dose excreted (clinical; iv, 200 mg, Fe (%)) was 35.7 ± 3.85%. For the same molecule, the dose excreted (clinical; iv, 200 mg, Fe (fraction of dose recovered in urine as unchanged drug)) was 36 ± 4%, the dose excreted (clinical; iv, 300 mg, Fe (fraction of dose recovered in urine as unchanged drug)) was 49 ± 8% and the dose excreted (clinical; iv, 400 mg, Fe (%)) was 53.4 ± 6.21%. For the same molecule, the dose excreted (clinical; iv, 400 mg, Fe (fraction of dose recovered in urine as unchanged drug)) was 53 ± 6%.
